Experimental data from patent publication US7601686B2, “Hepatitis C virus inhibitors” (Bristol-Myers Squibb Company, priority 2005, dated 2009).
pEC50, pIC50: −log10 of the molar value. Read-outs that look alike come from different tables or passages of the source.

How the values were obtained:
[1] = biological target: T1, HCV NS3/4A protease complex, BMS strain (UniProt P27958, species not given/STRAIN_BMS); assay: FRET peptide assay to monitor HCV NS3/4A proteolytic activity (BMS strain); type: biochemical, Hepatitis C virus (genotype 1a)
T1 construct: DNA encoding the recombinant HCV NS3/4A protease complex (amino acids 1027 to 1711) for these strains [H77 and J4L6S]; fused on or other part: For the H77 and J4L6S constructs, a three-lysine solubilising tail at the NS4A C-terminus and a Ni-NTA-purifiable tag from pET21b
Source text: Generation of Recombinant HCV NS3/4A Protease Complex
HCV NS3 protease complexes, derived from the BMS strain, H77 strain or J4L6S strain, were generated, as described below. These purified recombinant proteins were generated for use in a homogeneous assay (see below) to provide an indication of how effective compounds of the present disclosure would be in inhibiting HCV NS3 proteolytic activity.
Serum from an HCV-infected patient was obtained from Dr. T. Wright, San Francisco Hospital. An engineered full-length cDNA (compliment deoxyribonucleic acid) template of the HCV genome (BMS strain) was constructed from DNA fragments obtained by reverse transcription-PCR (RT-PCR) of serum RNA (ribonucleic acid) and using primers selected on the basis of homology between other genotype 1a strains. From the determination of the entire genome sequence, a genotype 1a was assigned to the HCV isolate according to the classification of Simmonds et al. (See P Simmonds, K A Rose, S Graham, S W Chan, F McOmish, B C Dow, E A Follett, P L Yap and H Marsden, J. Clin. Microbiol., 31(6), 1493-1503 (1993)). […] The infectious clones, H77 (1a genotype) and J4L6S (1b genotype) were obtained from R. Purcell (NIH) and the sequences are published in Genbank (AAB67036, see Yanagi, M., Purcell, R. H., Emerson, S. U. and Bukh, J. Proc. Natl. Acad. Sci. U.S.A. 94(16), 8738-8743 (1997); AF054247, see Yanagi, M., St Claire, M., Shapiro, M., Emerson, S. U., Purcell, R. H. and Bukh, J, Virology 244 (1), 161-172. (1998)).
The H77 and J4L6S strains were used for production of recombinant NS3/4A protease complexes. DNA encoding the recombinant HCV NS3/4A protease complex (amino acids 1027 to 1711) for these strains were manipulated as described by P. Gallinari et al. (see Gallinari P, Paolini C, Brennan D, Nardi C, Steinkuhler C, De Francesco R. Biochemistry. 38(17):5620-32, (1999)). Briefly, a three-lysine solubilizing tail was added at the 3′-end of the NS4A coding region. The cysteine in the P1 position of the NS4A-NS4B cleavage site (amino acid 1711) was changed to a glycine to avoid the proteolytic cleavage of the lysine tag. Furthermore, a cysteine to serine mutation was introduced by PCR at amino acid position 1454 to prevent the autolytic cleavage in the NS3 helicase domain. The variant DNA fragment was cloned in the pET21b bacterial expression vector (Novagen) and the NS3/4A complex was expressed in Escherichia coli strain BL21 (DE3) (Invitrogen) following the protocol described by P. Gallinari et al. (see Gallinari P, Brennan D, Nardi C, Brunetti M, Tomei L, Steinkuhler C, De Francesco R., J. Virol. 72(8):6758-69 (1998)) with modifications. Briefly, the NS3/4A protease complex expression was induced with 0.5 millimolar (mM) Isopropyl β-D-1-thiogalactopyranoside (IPTG) for 22 hours (h) at 20° C. A typical fermentation (1 Liter (L)) yielded approximately 10 grams (g) of wet cell paste. The cells were resuspended in lysis buffer (10 mL/g) consisting of 25 mM N-(2-Hydroxyethyl)piperazine-N′-(2-Ethane Sulfonic acid) (HEPES), pH 7.5, 20% glycerol, 500 mM Sodium Chloride (NaCl), 0.5% Triton X-100, 1 microgram/milliliter (“μg/mL”) lysozyme, 5 mM Magnesium Chloride (MgCl2), 1 μg/mL DnaseI, 5 mM β-Mercaptoethanol (βME), Protease inhibitor—Ethylenediamine Tetraacetic acid (EDTA) free (Roche), homogenized and incubated for 20 minutes (min) at 4° C. The homogenate was sonicated and clarified by ultra-centrifugation at 235000 g for 1 h at 4° C. Imidazole was added to the supernatant to a final concentration of 15 mM and the pH adjusted to 8.0. The crude protein extract was loaded on a Nickel—Nitrilotriacetic acid (Ni-NTA) column pre-equilibrated with buffer B (25 mM HEPES, pH 8.0, 20% glycerol, 500 mM NaCl, 0.5% Triton X-100, 15 mM imidazole, 5 mM βME). The sample was loaded at a flow rate of 1 mL/min. The column was washed with 15 column volumes of buffer C (same as buffer B except with 0.2% Triton X-100). […]

[2] = system: HCV replicon in HUH-7 cells; assay: HCV replicon FRET assay; type: cell-based, Hepatitis C virus (strain 1b)
Source text: Generation of HCV Replicon
An HCV replicon whole cell system was established as described by Lohmann V, Korner F, Koch J, Herian U, Theilmann L, Bartenschlager R., Science 285(5424):110-3 (1999). This system enabled us to evaluate the effects of our HCV Protease compounds on HCV RNA replication. Briefly, using the HCV strain 1b sequence described in the Lohmann paper (Assession number:AJ238799), an HCV cDNA was synthesized by Operon Technologies, Inc. (Alameda, Calif.), and the full-length replicon was then assembled in plasmid pGem9zf(+) (Promega, Madison, Wis.) using standard molecular biology techniques. The replicon consists of (i) the HCV 5′ UTR fused to the first 12 amino acids of the capsid protein, (ii) the neomycin phosphotransferase gene (neo), (iii) the IRES from encephalomyocarditis virus (EMCV), and (iv) HCV NS3 to NS5B genes and the HCV 3′ UTR. Plasmid DNAs were linearized with ScaI and RNA transcripts were synthesized in vitro using the T7 MegaScript transcription kit (Ambion, Austin, Tex.) according to manufacturer's directions. In vitro transcripts of the cDNA were transfected into the human hepatoma cell line, HUH-7. […] Resulting cell lines were characterized for positive and negative strand RNA production and protein production over time.
The HCV replicon FRET assay was developed to monitor the inhibitory effects of compounds described in the disclosure on HCV viral replication. HUH-7 cells, constitutively expressing the HCV replicon, were grown in Dulbecco's Modified Eagle Media (DMEM) (Gibco-BRL) containing 10% Fetal calf serum (FCS) (Sigma) and 1 mg/mL G418 (Gibco-BRL). Cells were seeded the night before (1.5×10^4 cells/well) in 96-well tissue-culture sterile plates. Compound and no compound controls were prepared in DMEM containing 4% FCS, 1:100 Penicillin/Streptomysin (Gibco-BRL), 1:100 L-glutamine and 5% DMSO in the dilution plate (0.5% DMSO final concentration in the assay). Compound/DMSO mixes were added to the cells and incubated for 4 days at 37° C. After 4 days, cells were first assessed for cytotoxicity using alamar Blue (Trek Diagnotstic Systems) for a CC50 reading. The toxicity of compound (CC50) was determined by adding 1/10th volume of alamar Blue to the media incubating the cells. After 4 h, the fluorescence signal from each well was read, with an excitation wavelength at 530 nm and an emission wavelength of 580 nm, using the Cytofluor Series 4000 (Perspective Biosystems). Plates were then rinsed thoroughly with Phosphate-Buffered Saline (PBS) (3 times 150 μl).

[3] = NS3/4A BMS strain, enzyme assay; read-out: IC 50 Range
[4] = Hepatitis C virus, HCV replicon cell assay, HUH-7, read-out: EC50 Range
[5] = read-out: IC 50 Range; NS3/4A BMS strain, enzyme assay

T1 sequence (P27958 1027-1657, stated change not applied, one chain of several): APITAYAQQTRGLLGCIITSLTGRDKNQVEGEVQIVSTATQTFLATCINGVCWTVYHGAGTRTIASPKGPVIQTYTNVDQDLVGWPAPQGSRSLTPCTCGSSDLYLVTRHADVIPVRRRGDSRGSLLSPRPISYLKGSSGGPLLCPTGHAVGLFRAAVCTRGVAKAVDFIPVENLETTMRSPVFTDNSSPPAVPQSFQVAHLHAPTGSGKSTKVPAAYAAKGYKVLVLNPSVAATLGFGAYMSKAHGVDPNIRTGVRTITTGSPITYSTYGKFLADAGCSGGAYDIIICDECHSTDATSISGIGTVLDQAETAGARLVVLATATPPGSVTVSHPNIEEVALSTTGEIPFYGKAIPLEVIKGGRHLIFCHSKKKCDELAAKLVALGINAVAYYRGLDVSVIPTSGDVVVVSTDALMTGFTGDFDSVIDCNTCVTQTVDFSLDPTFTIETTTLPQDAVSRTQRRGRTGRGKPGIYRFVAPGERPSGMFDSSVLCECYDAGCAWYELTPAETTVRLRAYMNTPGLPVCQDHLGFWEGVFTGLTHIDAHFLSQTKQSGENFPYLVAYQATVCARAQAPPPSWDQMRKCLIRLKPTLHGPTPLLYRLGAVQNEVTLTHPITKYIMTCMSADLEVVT

Row | Compound | pIC50 [1, 3] | pEC50 [2, 4] | pEC50 ([2]; HCV replicon cell assay, HUH-7, read-out: EC50 Range) | pIC50 [1, 5] | pEC50 ([2]; Hepatitis C virus, Huh-7, read-out: EC50 Range)
1 | C=CC1CC1(NC(=O)[C@@H]1C[C@@H](NC(=O)c2ccncc2)CN1C(=O)[C@@H](NC(=O)CC1CC1)C(C)(C)C)C(=O)NS(=O)(=O)C1CC1 (some centres unmarked) [Compound 14] | 4.82 to 6.82 | < 4.82 | – | – | –
2 | C=CC1CC1(NC(=O)[C@@H]1C[C@@H](NC(=O)c2sc3ccccc3c2Cl)CN1C(=O)[C@@H](NC(=O)CC1CC1)C(C)(C)C)C(=O)NS(=O)(=O)C1CC1 (single isomer, unassigned) [Compound 4] | > 6.82 | – | 4.82 to 6.82 | – | –
3 | C=CC1CC1(NC(=O)[C@@H]1C[C@@H](NC(=O)c2nccc3ccccc23)CN1C(=O)[C@@H](NC(=O)CC1CC1)C(C)(C)C)C(=O)NS(=O)(=O)C1CC1 (some centres unmarked) [Compound 24] | 4.82 to 6.82 | < 4.82 | – | – | –
4 | C=CC1CC1(NC(=O)[C@@H]1C[C@@H](NC(=O)OCC2c3ccccc3-c3ccccc32)CN1C(=O)[C@@H](NC(=O)OC(C)(C)C)C(C)(C)C)C(=O)NS(=O)(=O)C1CC1 (mixture of isomers) [Compound 5, [1-(2-tert-butoxycarbonylamino-3,3-dimethyl-butyryl)-5-(1-cyclopropanesulfonylaminocarbonyl-2-vinyl-cyclopropylcarbamoyl)-pyrrolidin-3-yl]-carbamic acid 9H-fluoren-9-ylmethyl ester] | – | 4.82 to 6.82 | – | 4.82 to 6.82 | –
5 | C=CC1CC1(NC(=O)[C@@H]1C[C@@H](NC(=O)c2c(C)nc3ccccn23)CN1C(=O)[C@@H](NC(=O)CC1CC1)C(C)(C)C)C(=O)NS(=O)(=O)C1CC1 (some centres unmarked) [Compound 17] | > 6.82 | < 4.82 | – | – | –
6 | C=CC1CC1(NC(=O)[C@@H]1C[C@@H](NC(=O)c2cc3ccccc3cn2)CN1C(=O)[C@@H](NC(=O)CC1CC1)C(C)(C)C)C(=O)NS(=O)(=O)C1CC1 (some centres unmarked) [Compound 28] | > 6.82 | 4.82 to 6.82 | – | – | –
7 | C=CC1CC1(NC(=O)[C@@H]1C[C@@H](NC(=O)c2cnc3c(c(C)nn3C)c2Cl)CN1C(=O)[C@@H](NC(=O)CC1CC1)C(C)(C)C)C(=O)NS(=O)(=O)C1CC1 (some centres unmarked) [Compound 22] | > 6.82 | < 4.82 | – | – | –
8 | C=CC1CC1(NC(=O)[C@@H]1CC(NC(=O)c2cc(-c3ccccc3)nc3ccccc23)CN1C(=O)[C@@H](NC(=O)OC(C)(C)C)C(C)(C)C)C(=O)NS(=O)(=O)C1CC1 (some centres unmarked) [Compound 6] | > 6.82 | 4.82 to 6.82 | – | – | –
9 | C=CC1CC1(NC(=O)[C@@H]1C[C@@H](NC(=O)c2ccnc3ccccc23)CN1C(=O)[C@@H](NC(=O)CC1CC1)C(C)(C)C)C(=O)NS(=O)(=O)C1CC1 (some centres unmarked) [Compound 10] | 4.82 to 6.82 | < 4.82 | – | – | –
10 | C=CC1CC1(NC(=O)[C@@H]1C[C@@H](NC(=O)c2ccccc2OC)CN1C(=O)[C@@H](NC(=O)CC1CC1)C(C)(C)C)C(=O)NS(=O)(=O)C1CC1 (some centres unmarked) [Compound 35] | – | < 4.82 | – | 4.82 to 6.82 | –
11 | C=CC1CC1(NC(=O)[C@@H]1C[C@@H](NC(=O)n2ccc3ccccc32)CN1C(=O)[C@@H](NC(=O)CC1CC1)C(C)(C)C)C(=O)NS(=O)(=O)C1CC1 (some centres unmarked) [Compound 51] | – | – | – | > 6.82 | 4.82 to 6.82
12 | C=CC1CC1(NC(=O)[C@@H]1C[C@@H](NC(=O)c2cccc3ccccc23)CN1C(=O)[C@@H](NC(=O)CC1CC1)C(C)(C)C)C(=O)NS(=O)(=O)C1CC1 (some centres unmarked) [Compound 16] | > 6.82 | < 4.82 | – | – | –
13 | C=CC1CC1(NC(=O)[C@@H]1C[C@@H](NC(=O)c2cc3ccccc3o2)CN1C(=O)[C@@H](NC(=O)CC1CC1)C(C)(C)C)C(=O)NS(=O)(=O)C1CC1 (some centres unmarked) [Compound 27] | > 6.82 | 4.82 to 6.82 | – | – | –
14 | C=CC1CC1(NC(=O)[C@@H]1C[C@@H](NC(=S)NCc2ccccc2)CN1C(=O)[C@@H](NC(=O)OC(C)(C)C)C(C)(C)C)C(=O)NS(=O)(=O)C1CC1 (some centres unmarked) [Compound 45] | – | < 4.82 | – | 4.82 to 6.82 | –
15 | C=CC1CC1(NC(=O)[C@@H]1C[C@@H](NC(=O)c2ccsc2)CN1C(=O)[C@@H](NC(=O)CC1CC1)C(C)(C)C)C(=O)NS(=O)(=O)C1CC1 (some centres unmarked) [Compound 12] | 4.82 to 6.82 | < 4.82 | – | – | –
16 | C=CC1CC1(NC(=O)[C@@H]1C[C@@H](NC(=O)Nc2cccc3ccccc23)CN1C(=O)[C@@H](NC(=O)OC(C)(C)C)C(C)(C)C)C(=O)NS(=O)(=O)C1CC1 (some centres unmarked) [Compound 43] | – | < 4.82 | – | > 6.82 | –
17 | C=CC1CC1(NC(=O)[C@@H]1C[C@@H](NCc2ccnc3ccccc23)CN1C(=O)[C@@H](NC(=O)OC(C)(C)C)C(C)(C)C)C(=O)NS(=O)(=O)C1CC1 (some centres unmarked) [Compound 47] | > 6.82 | < 4.82 | – | – | –
18 | C=CC1CC1(NC(=O)[C@@H]1C[C@@H](NC(=O)n2c(=O)oc3ccccc32)CN1C(=O)[C@@H](NC(=O)CC1CC1)C(C)(C)C)C(=O)NS(=O)(=O)C1CC1 (some centres unmarked) [Compound 53] | – | < 4.82 | – | > 6.82 | –
19 | C=CC1CC1(NC(=O)C1CC(NC(=O)c2ccc3ccccc3[n+]2[O-])CN1C(=O)C(NC(=O)CC1CC1)C(C)(C)C)C(=O)NS(=O)(=O)C1CC1 (centres unmarked) [Compound 34] | – | 4.82 to 6.82 | – | > 6.82 | –
